Here are results for one substance from patent publication US9034862B2, “Compositions and methods for the treatment of cancer” (priority 2011, dated 2015).

The subject of assay [1] is Gaussia luciferase expression in human cancer cells. The conditions noted are these: for Transcription (normalized against unplatinated control): NoPt = 100, cell line not stated. The protocol:
(§1) Vector Construction and Preparation. […] Preparation of Platinated Insertion Strand. […] The suspension was centrifuged. To a solution of 0.2 mM 16-mer oligonucleotide 5′-[…]*[…] The reaction mixture was incubated in the dark at 37° C. overnight. The reaction was stopped when the solution was frozen. […] After purification, the platinated DNA solution was dialyzed against H2O and lyophilized. […] The insertion strand was further analyzed for nucleotide composition by nuclease S1 digestion to confirm the platination site following a protocol published previously (Table 13) (e.g., see J Am Chem Soc 2007, 129, 6370-6371). The platinated and unplatinated DNA strands (40 μM) were phosphorylated by T4 PNK (0.67 U/μL) at 37° C. for 3 h, followed by a phenol/chloroform/isoamyl alcohol extraction to remove the enzyme. The phosphorylated DNA strands were ethanol precipitated and stored in −80° C. at a concentration of 100 pmol/μL.
(§2) Briefly, a 600 μg quantity of pGLuc8temG plasmid was digested with 30 U Nt.BbvCI at 37° C. for 1 h. The reaction mixture was heated at 80° C. for 20 min to deactivate the enzyme, followed by a phenol/chloroform/isoamyl alcohol extraction to remove the enzyme. The mixture was dialyzed against H2O overnight at 4° C. The plasmid was further digested with 30 U Nt.BspQI at 50° C. for 1 h, and the enzyme was heat-deactivated and removed by a phenol/chloroform/isoamyl alcohol extraction. The nicked plasmid was mixed with 1,000 equiv of complementary DNA strand 5′-[…] (SEQ ID NO: 2) in a buffer of 10 mM Tris-HCl, 2 mM MgCl2, 0.4 M NaCl, pH 7.4, heated at 80° C. for 5 min, and subsequently cooled at 4° C. for 5 min for 10 cycles. […] A 120 μg quantity of the gapped plasmid was annealed with 100 equiv of the insertion strand in a buffer of 10 mM Tris-HCl, 2 mM MgCl2, 0.4 M NaCl, pH 7.4 from 90° C. to 4° C. at −1° C./min in a thermocycler. The platinated plasmid was dialyzed against H2O at 4° C. overnight and further purified by treatment with 30 U BsmBI at 55° C. for 1 h. The closed-circular form of plasmid was purified and concentrated by isopycnic centrifugation, followed by n-butanol extraction and ethanol precipitation. The plasmids were quantitated by a Quant-iT™ PicoGreen® dsDNA Kit from Invitrogen (Carlsbad, Calif.), and stored in −80° C. in TE buffer (10 mM Tris-HCl, 2 mM EDTA, pH 7.4).
(§3) Transfection of platinated plasmids into mammalian cells was carried out as reported previously (e.g., see ChemBioChem 2011, 12, 1115-1123). A549 and HeLa cells were plated at 2,000 cells per well in 96-well plates. NTera-2 and HT29 cells were plated at 4,000 cells per well in 96-well plates. MCF7 and U2OS cells were plated at 5,000 cells per well in 96-well plates. The cells were allowed to attach and grow for 48 h, and then washed with antibiotic-free culture media right before transfection. Transient transfection of the cells was carried out using Lipofectamine 2000. Briefly, 10 ng of site specifically platinated probes was included in each well. The experiments were performed in quadruplicate. The probes were diluted in OptiMEM, and Lipofectamine was diluted in OptiMEM. The two solutions were combined and incubated for 20 min. The transfection mixture was delivered into each well, and the cells were incubated for 2 h. The cells were washed with antibiotic-free culture media to remove the transfection mixture. A 100 μL volume of fresh, antibiotic-free media was added into each well to start the transcription assay. […]

For assay [2], the system named is NTera2. Description: MTT assay, NTera2. The format is cell-based, human. The conditions noted are these: Table 3, NTera2 Testis, 72-h incubation. In general terms: Formazan colour is commonly taken as a measure of viable cells.
Protocol: (§4) Solutions of the platinum compounds were freshly prepared in sterile PBS before use and their concentrations quantitated by atomic absorption spectroscopy. Cells were seeded on a 96-well plate (1200 cells per well for cancer cells and 1800 cells per well for the normal lung fibroblasts) in 100 μL RPMI or DMEM media, and incubated for 24 h. […] The cells were then treated with 20 μL of 3-(4,5-dimethylthiazol-2-yl)-2,5-diphenyltetrazolium bromide (MTT) (5 mg/mL in PBS) and incubated for 4 h. The medium was removed, 100 μL of DMSO was added to the cells, and the absorbance of the purple formazan was recorded at 560 nm using a BioTek Synergy HT multi-detection microplate plate reader. Each condition was performed in triplicate and three independent experiments were carried out for each cell line.
The subject of assay [3] is 5′-dGMP. The conditions noted are these: 16 equiv 5′-dGMP, 37° C., PBS pH 7.4.
Protocol: The 1-D ^1H NMR kinetic studies were performed in duplicate as a standard time-arrayed experiment using a variable delayed list. Incremented 1-D spectra were processed in exactly the same way and signals of aromatic amine ligands from platinum compounds were integrated. The relative concentrations of the platinum compound at each time point were calculated from peak integrals. […] Reactions of platinum compounds with 5′-dGMP were performed in NMR tubes containing 2 mM of the platinum compounds and 32 mM (16 equiv) of 5′-dGMP in 10 mM PBS buffer, D2O, pH*7.4 at 37° C.
The test system of assay [4] is Gaussia luciferase expression in A549 cells. The conditions noted are these: ratio of recovery of transcription level vs. time. The protocol:
as §1, §2, §3

Assay [5] concerns Gaussia luciferase expression in U2OS cells. The conditions noted are these: ratio of recovery of transcription level vs. time. As for the experimental part:
as §1, §2, §3

The test system of assay [6] is Gaussia luciferase expression in HeLa cells. The conditions noted are these: ratio of recovery of transcription level vs. time. The protocol:
as §1, §2, §3

Assay [7] has as its system Gaussia luciferase expression in MCF7 cells. The conditions noted are these: ratio of recovery of transcription level vs. time. The protocol:
as §1, §2, §3

For assay [8], the system named is Gaussia luciferase expression in HT29 cells. The conditions noted are these: ratio of recovery of transcription level vs. time. The protocol: as §1, §2, §3
The subject of assay [9] is human lung carcinoma A549. Description: MTT assay, A549. The format is cell-based.
Protocol: as §4
Human prostate carcinoma (PC3) and human cervix carcinoma (HeLa) cells were obtained from the ATCC. The human lung carcinoma cell line A549 was kindly provided by David E. Root (Whitehead Institute for Biomedical Research). Cells were incubated at 37° C. in 5% CO2 and grown in RPMI (PC3) or DMEM (A549 and HeLa) medium supplemented with 10% fetal bovine serum and 1% penicillin/streptomycin. Cells were passaged every 3 to 4 days and restarted from the frozen stock upon reaching passage number 20.
Solutions of the platinum agents were freshly prepared in sterile PBS before use and the platinum content was quantitated by AAS. Cells were seeded on 96 well plates (1200 cells per well) in 100 μL RPMI or DMEM media\ and incubated for 24 hours. […] The cells were then treated with 20 μL of 3-(4,5-dimethylthiazol-2-yl)-2,5-diphenyltetrazolium bromide (MTT) (5 mg/mL in PBS) and incubated for 4 h. The medium was removed, 100 μL of DMSO were added to the cells, and the absorbance of the purple formazan was recorded at 570 nm using a BioTek Synergy HT multi-detection microplate plate reader. For each cell line, three independent experiments were carried out in triplicate.
The subject of assay [10] is Human colon carcinoma HT29. The assay is described as follows: MTT assay, HT29. The format is cell-based. The protocol: Human colon carcinoma HT29, human breast carcinoma MCF7, human bone sarcoma U2OS, human prostate carcinoma PC3, and human cervix carcinoma HeLa cells were obtained from the ATCC. A2780/CP70 cisplatin-resistant human ovarian cancer cells were kindly provided by Dr. Stephen B. Howell (Moores UCSD Cancer Center) and the human lung carcinoma cell lines A549 and normal lung fibroblast MRC5 by David E. Root (Whitehead Institute for Biomedical Research). Cells were incubated at 37° C. in 5% CO2 and grown in RPMI (HT29, A2780/CP70, and PC3) or DMEM (A549, MRC5, HeLa, MCF7, and U2OS) medium supplemented with 10% fetal bovine serum and 1% penicillin/streptomycin. Cells were passed every 3 to 4 days and restarted from a frozen stock upon reaching pass number 20.
Solutions of the platinum compounds were freshly prepared in sterile PBS before use and their concentrations quantitated by atomic absorption spectroscopy. […] The cells were then treated with 20 μL of 3-(4,5-dimethylthiazol-2-yl)-2,5-diphenyltetrazolium bromide (MTT) (5 mg/mL in PBS) and incubated for 4 h. The medium was removed, 100 μL of DMSO was added to the cells, and the absorbance of the purple formazan was recorded at 560 nm using a BioTek Synergy HT multi-detection microplate plate reader. Each condition was performed in triplicate and three independent experiments were carried out for each cell line.

The IC50 is the concentration that inhibits the measured activity by half.

Where two headings read alike, the source gives them in different places.

“cis-[Pt(NH3)2(phenanthridine)Cl]NO3 [phenanthriplatin]”: the “Transcription (normalized against unplatinated control)” value in assay [1] (16 hours) came out at 26; in assay [1] (24 hours) it was 32; in assay [1] (32 hours), 36; in [1] (44 hours), 41. Also, the “transcription inhibition in live mammalian cancer cells” value in assay [1] (site-specific cis-[Pt(NH3)2(phen)]2+-dG lesion) is “strong transcription inhibitor”. Also, the IC50 came out at 0.035 ± 0.002 µM in assay [2]; 0.22 ± 0.01 µM in assay [9] (Table 3, A549 Lung, 72-h incubation); 0.17 ± 0.002 µM in assay [9] (Table 4, A549 human lung carcinoma, 72 h incubation); 0.22 ± 0.01 µM in [9] (Table 5, A549, 72-h incubation); 0.22 ± 0.006 µM in assay [9] (Table 11 (Example 3), A549 Lung, 72 h); 0.17 ± 0.01 µM in assay [9] (Table 14, A549, MTT assay). For the same substance, the IC50 in [10] (Table 3, HT29 Colorectal, 72-h incubation) stood at 2.02 ± 0.04 µM; in assay [10] (Table 5, HT29, 72-h incubation), 2.02 ± 0.04 µM; in assay [10] (Table 14, HT29, MTT assay) it was 2.02 ± 0.04 µM. The “pseudo-first order rate constant, reaction with 5′-dGMP” value in assay [3] was 0.22 h⁻¹. For the same substance, the “recovery rate of transcription (S)” value in [4] is 0.263; in assay [5], 0.805; in [6], 0.434; in [7], 0.337; in assay [8], 0.884.
